# Target: recombinant human CL receptor/RAMP1 (Homo sapiens (Human), UniProt O60894+Q16602)
# Experiment: Recombinant receptor binding assay (125I-hCGRP displacement, membranes of HEK 293 cells)
# Settings: membranes of HEK 293 cells expressing human CL receptor/RAMP1
# Description: RECOMBINANT RECEPTOR: Human CL receptor (Genbank accession number L76380) was subcloned into the expression vector pIREShyg2 (BD Biosciences Clontech) as a 5′NheI and 3′PmeI fragment. Human RAMP1 (Genbank accession number AJ001014) was subcloned into the expression vector pIRESpuro2 (BD Biosciences Clontech) as a 5′NheI and 3′NotI fragment. HEK 293 cells (human embryonic kidney cells; ATCC #CRL-1573) were cultured in DMEM with 4.5 g/L glucose, 1 mM sodium pyruvate and 2 mM glutamine supplemented with 10% fetal bovine serum (FBS), 100 units/mL penicillin and 100 μg/mL streptomycin, and maintained at 37° C. and 95% humidity. Cells were subcultured by treatment with 0.25% trypsin with 0.1% EDTA in HBSS. Stable cell line generation was accomplished by co-transfecting 10 μg of DNA with 30 μg Lipofectamine 2000 (Invitrogen) in 75 cm^2 flasks. CL receptor and RAMP1 expression constructs were co-transfected in equal amounts. Twenty-four hours after transfection the cells were diluted and selective medium (growth medium+300 μg/mL hygromycin and 1 μg/mL puromycin) was added the following day. A clonal cell line was generated by single cell deposition utilizing a FACS Vantage SE (Becton Dickinson). Growth medium was adjusted to 150 μg/mL hygromycin and 0.5 μg/mL puromycin for cell propagation.
# RECOMBINANT RECEPTOR BINDING ASSAY: Cells expressing recombinant human CL receptor/RAMP1 were washed with PBS and harvested in harvest buffer containing 50 mM HEPES, 1 mM EDTA and Complete protease inhibitors (Roche). The cell suspension was disrupted with a laboratory homogenizer and centrifuged at 48,000 g to isolate membranes. The pellets were resuspended in harvest buffer plus 250 mM sucrose and stored at −70° C. For binding assays, 20 μg of membranes were incubated in 1 ml binding buffer (10 mM HEPES, pH 7.4, 5 mM MgCl2, and 0.2% BSA) for 3 hours at room temperature containing […] ^125I-hCGRP (GE Healthcare) and antagonist. The assay was terminated by filtration through 96-well GFB glass fiber filter plates (PerkinElmer) that had been blocked with 0.05% polyethyleneimine. The filters were washed 3 times with ice-cold assay buffer (10 mM HEPES, pH 7.4 and 5 mM MgCl2). Scintillation fluid was added and the plates were counted on a Topcount (Packard). Non-specific binding was determined and the data analysis was carried out with the apparent dissociation constant (Ki) determined by using a non-linear least squares fitting the bound CPM data to the equation below:
# [formula] Where Y is observed CPM bound, Ymax is total bound counts, Ymin is non specific bound counts, (Ymax−Ymin) is specific bound counts, % Imax is the maximum percent inhibition, % I min is the minimum percent inhibition, radiolabel is the probe, and the Kd is the apparent dissociation constant for the radioligand for the receptor as determined by Hot saturation experiments.
# Chain of recombinant human CL receptor/RAMP1 (Q16602 23-461): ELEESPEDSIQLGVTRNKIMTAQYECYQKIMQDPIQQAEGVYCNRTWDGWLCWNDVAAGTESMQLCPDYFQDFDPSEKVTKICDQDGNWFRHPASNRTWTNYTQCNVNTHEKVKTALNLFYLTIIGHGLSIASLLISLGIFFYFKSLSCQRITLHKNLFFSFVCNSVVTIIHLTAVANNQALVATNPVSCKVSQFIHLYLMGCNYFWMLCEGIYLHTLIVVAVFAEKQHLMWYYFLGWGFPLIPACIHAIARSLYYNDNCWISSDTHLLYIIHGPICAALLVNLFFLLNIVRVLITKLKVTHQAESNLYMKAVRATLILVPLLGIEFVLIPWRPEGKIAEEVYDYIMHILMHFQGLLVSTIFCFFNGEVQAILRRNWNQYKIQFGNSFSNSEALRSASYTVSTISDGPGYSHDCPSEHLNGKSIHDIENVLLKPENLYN
# Chain of recombinant human CL receptor/RAMP1 (O60894 27-148): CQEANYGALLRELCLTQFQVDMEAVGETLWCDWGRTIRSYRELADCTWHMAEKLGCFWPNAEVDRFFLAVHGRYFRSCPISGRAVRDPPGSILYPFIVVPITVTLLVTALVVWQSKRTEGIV
row,Ki [nM],SMILES
1,0.057,CC(C)N1C(=O)N(Cc2cnc3cc4c(cc3c2)C[C@@]2(C4)C(=O)Nc3ncccc32)C2(CCCc3ccccc32)C1=O (stereo partly shown) [Example 5]
2,0.34,CC(C)N1C(=O)N(Cc2cnc3cc4c(cc3c2)C[C@@]2(C4)C(=O)Nc3ncccc32)C2(CCCCCC2)C1=O [Example 6]
3,0.14,O=C1N(Cc2cnc3cc4c(cc3c2)C[C@@]2(C4)C(=O)Nc3ncccc32)[C@H](c2cc(F)cc(F)c2)CNC12CCCC2 [Example 8]
4,0.77,O=C1N(Cc2cnc3cc4c(cc3c2)C[C@@]2(C4)C(=O)Nc3ncccc32)[C@H](c2cc(F)cc(F)c2)CCC12CCCC2 [Example 9]
5,1.3,O=C1N(Cc2cnc3cc4c(cc3c2)C[C@@]2(C4)C(=O)Nc3ncccc32)C(c2ccccc2Cl)=NC12CCCC2 [Example 10]
6,0.28,CC(C)N1C(=O)N(Cc2cnc3cc4c(cc3c2)C[C@@]2(C4)C(=O)Nc3ncccc32)C(C)(c2ccccc2)C1=O (stereo partly shown) [Example 12]
7,0.062,CN1C[C@@](C)(c2cc(F)cc(F)c2)N(Cc2cnc3cc4c(cc3c2)C[C@@]2(C4)C(=O)Nc3ncccc32)C(=O)C12CCCC2 [Example 13]
8,0.49,O=C1N(Cc2cnc3cc4c(cc3c2)C[C@@]2(C4)C(=O)Nc3ncccc32)[C@H](c2cc(F)cc(F)c2)CCNC12CCCC2 [Example 15]
9,0.89,O=C1N(Cc2ccc3nc4c(cc3c2)C[C@@]2(C4)C(=O)Nc3ncccc32)[C@H](c2cc(F)cc(F)c2)CCNC12CCCC2 [Example 16]
10,57,O=C1NCCN(Cc2cnc3cc4c(cc3c2)C[C@@]2(C4)C(=O)Nc3ncccc32)C1c1ccc(F)cc1 (stereo partly shown) [Example 17]

# Source: patent publication US8507477B2, “3- and 6-quinolines with N-attached heterocyclic CGRP receptor antagonists” (Merck, Sharp & Dohme, Corp., priority 2008, dated 2013)
